Measured values reported in US9586959B2, “Substituted tricyclic heterocycles as histamine 4 receptor inhibitors” (C&C RESEARCH LABORATORIES, priority 2011, dated 2017).
≈ marks a conversion by molar mass, not a printed value.

What was measured:
[1] = target: human histamine 4 receptor (hH4R) (Homo sapiens (Human), UniProt Q9H3N8); test: Binding affinity of human histamine 4 receptor (hH4R), [3H] labeled histamine displacement; settings: hH4R-overexpressed cell membrane, [3H] histamine
In short: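 Membranes of hH4R-overexpressing cells (25 μg) incubated with compound and [3H]histamine (diluted to 1 μM before addition) for 30 min at 27° C. Non-specific binding defined with histamine (100 μM before addition); bound radioligand collected by filtration on PEI-presoaked glass fibre, washed with 50 mM Tris-HCl pH 7.4, counted by scintillation (CPM).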

[2] = Metabolic stability in human microsome; settings: for Metabolic stability (CLh. int), Human: human microsome 1 mg/mL, 5 μM compound, 1 mM NADPH
[3] = Solubility in artificial gastrointestinal tract solution; assay type: physicochemical; settings: artificial gastrointestinal tract solution, thermodynamic from solid; for solubility at 1 h: fassgf or other biorelevant, first solution pH 1.2, 2 mg/mL sample, 37° C. 1 hour; for solubility at 2 h: fassif, second solution pH 6.5, 2 mg/mL sample, 37° C. 2 hours
In short: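 Two media were used: pH 1.2 NaCl/HCl with Triton X-100, and pH 6.5 phosphate buffer with sodium taurocholate and lecithin. Heated sample solutions were filtered to remove undissolved compound, diluted 1:1 with CH3CN, and solubility was measured by liquid chromatography.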

[4] = system: substance P-induced itching, ICR mice; test: Substance P-induced itching model in ICR mice; assay type: in vivo; settings: 50 mg/kg oral, substance P 100 nmol intradermal, 20 min count
Description: Female, ICR mice (8 weeks old) were purchased from OrientBio Co., Ltd. The animals were housed under conditions of controlled temperature (23±3° C.), humidity (50±5%) and lighting with food and water available ad libitum.
The hair was clipped using clippers (8000AD, THRIVE) over the rostral part of the back 24 hours before the experiment under anesthesia with isoflurane. Substance P (100 nmol) was dissolved in saline and a volume of 40 μL injected intradermally into the rostral part of the back. Mice were dosed with either vehicle (20% cyclodextrin in second distilled water) or the compound by orally administration. The Compound (50 mg/kg) dissolved in a vehicle (20% cyclodextrin in second distilled water) and administered orally at a volume of 10 mL/kg.
Mice (n=10 per group) were divided into 3 groups (normal group, control group and experimental group). The animals were randomized for similar body weight distribution. A Vehicle or the compound was administered 20 minutes before injection of substance P or saline. Immediately after intradermal injection, the animals were returned to an acrylic cage (approximately 30×30×30 cm, access production) composed of four cells, to which they had been acclimated for at least 1 hour before the experiment, for observation of itch responses. A camera (Samsung, VLUUNV30) was positioned above the mice to record their response. Itch was measured by blinded counting of the number of scratching in the 20 min period immediately after the intradermal injection. A number of scratching was defined as 3 or more individual rapid scratch movements with the hind paws around the injection site (J. Toxicol. Sci. 2009, 34(4), 427-431; J. Pharmacol. Sci. 2006, 100, 285-288). All data were analyzed by using Excel and Prism, and all values are expressed as the mean±S.E.M. The inhibitory effect of compounds is shown as a percentage of the maximal response to histamine (100% control group). Statistical analysis was analyzed using one-way ANOVA with Dunnett test. Values of p<0.05 were considered statistically significant.

[5] = Mouse pharmacokinetics (oral); assay type: in vivo; settings: plasma, 50 mg/kg, ICR mouse, 5 mg/mL solution at 10 mL/kg; for AUC(0-inf): read-out: Mouse pharmacokinetics AUCinf; for half-life: read-out: Mouse pharmacokinetics t1/2 (converted)
Description: The weight of each ICR mouse and SD rat was properly 20˜30 g and 200˜300 g, and dosage of the compound of the present invention was 10 mL/kg for mice and 5 mL/kg for rats, and administered orally using Zonde. Blood collection was performed at 0.25, 0.5, 1, 2, 4, 6, 8 and 24 hours by orbital venous blood collection using a capillary tube coated with an anticoagulant, and then plasma was isolated using a centrifuge and kept in a freezer.
Plasma collected from animals and standard concentration material were pretreated using solid-phase extraction, and concentration of the compound of the invention was determined using a liquid chromatography mass spectrometer (Agilent HPLC, API-3000).
According to the resulting concentration value, the pharmacokinetics parameter was found using WinNonlin (Version 6.2) and half-life (t1/2), maximum blood concentration (Cmax) and infinite area under the curve (AUCinf) are shown in Tables 6 and 7 below.

Row | IC50 [1] [µM] | Metabolic stability (CLh. int), Human [2] [µL/min/mg] | solubility at 1 h [3] [µg/mL] | solubility at 2 h [3] [µg/mL] | Cmax [5] [ng/mL] | AUC(0-inf) [5] [ng·h/mL] | half-life [5] [h] | SMILES | Number of scratching (% change from control group) [4] | % remaining in 30 minutes ([2]; human microsome, 30 minutes)
1 | 0.065 | 400 | 1610 (≈ 4.22 mM) | 677 (≈ 1.78 mM) | 10200 | 21600 | 1.46 | CNC1CN(c2nc3ncc(I)cc3n3cnnc23)C1 [Compound 48, 1-(8-Iodopyrido[2,3-e][1,2,4]triazolo[4,3-a]pyrazin-4-yl)-N-methylazetidin-3-amine] | 33.5% | 
2 | 0.055 | 4200 | 1590 (≈ 5.5 mM) | 791 (≈ 2.73 mM) | 12300 | 23700 | 1.32 | CNC1CN(c2nc3ncc(Cl)cc3n3cnnc23)C1 [Compound 18, 1-(8-Chloropyrido[2,3-e][1,2,4]triazolo[4,3-a]pyrazin-4-yl)-N-methylazetidin-3-amine] | 42.6% | 
3 | 0.133 |  | 1370 (≈ 4.74 mM) | 1150 (≈ 3.97 mM) | 6570 | 16500 | 1.28 | Clc1cnc2nc(N3CCNCC3)c3nncn3c2c1 [Compound 7, 8-Chloro-4-(piperazin-1-yl)pyrido[2,3-e][1,2,4]triazolo[4,3-a]pyrazine] | 60.5^1% | NC^y: Not calculable (99.8% remaining in 30 minutes)

The remaining lines, values behind:

Row | SMILES | IC50 [1] [µM] | Metabolic stability (CLh. int), Human [2] [µL/min/mg] | solubility at 1 h [3] [µg/mL] | solubility at 2 h [3] [µg/mL] | Cmax [5] [ng/mL] | AUC(0-inf) [5] [ng·h/mL] | half-life [5] [h] | Number of scratching (% change from control group) [4] | % remaining in 30 minutes ([2]; human microsome, 30 minutes)
4 | CNC1CN(c2nc3ncc(Br)cc3n3nnnc23)C1 [Compound 95, 1-(8-Bromopyrido[2,3-e]tetrazolo[1,5-a]pyrazin-4-yl)-N-methylazetidin-3-amine] | 0.044 | 5500 | 1790 (≈ 5.34 mM) | 1130 (≈ 3.36 mM) | 15400 | 98300 | 4.03 | 80.7^1% | 
5 | CN1CCN(c2nc3ncc(Cl)cc3n3cnnc23)CC1 [Compound 4, 8-Chloro-4-(4-methylpiperazin-1-yl)pyrido[2,3-e][1,2,4]triazolo[4,3-a]pyrazine] | 0.04 | 2200 | 2010 (≈ 6.61 mM) | 1240 (≈ 4.09 mM) | 14900 | 35600 | 2.21 | 50.8% | 
6 | CNC1CN(c2nc3ncc(Br)cc3n3cnnc23)C1 [Compound 24, 1-(8-Bromopyrido[2,3-e][1,2,4]triazolo[4,3-a]pyrazin-4-yl)-N-methylazetidin-3-amine] | 0.036 | 1330 | 1690 (≈ 5.06 mM) | 939 (≈ 2.81 mM) | 18900 | 32200 | 0.96 | 74.5^1% | 
